Test results as given in patent US20160051536A1, “COMPOSITIONS TO ALLEVIATE PRESYSTEMIC METABOLISM OF OPIOIDS” (VIRGINIA COMMONWEALTH UNIVERSITY, priority 2013, published 2016).

Columns and labels:
UGT = assay: Effect of inhibitors on buprenorphine-glucuronide formation in LS180 cells; details: buprenorphine 10 μM
Experimental: Unless otherwise indicated, the in vitro experiments described in the following section were conducted using human colon adenocarcinoma LS180 cells.
Human intestinal cells (LS180) were cultured in Dulbecco's modified Eagle's medium (DMEM) supplemented with 10% fetal bovine serum and 1% non-essential amino acids in microplates. […] The cells were rinsed with DPBS, aspirated, and the solutions (37° C.) were added to the cells and incubated for 2 hours. The reactions were stopped and protein was precipitated by adding 20% acetonitrile. After freezing (−80° C.) and thawing, samples were centrifuged and analyzed by HPLC using an Alltima HP C18 column (4.6×100 mm, 3 μm) with gradient elution (mobile phase A: acetonitrile; mobile phase B: 10% acetonitrile, 90% aqueous 25 mM ammonium acetate; 0-78% A) followed by detection by fluoresence (excitation 283 nm, emission 346 nm) and quantitation using Waters Empower 2 software. Results were analyzed by one-way ANOVA with Dunnett's post-test (control vs. inhibitors); asterisk designates p<0.05; n.d. designates not detected.

[1] = in words; cited from earlier work
[2] = inhibitor 100 μM, 2 hours, vs control, p<0.05, n.d. = glucuronide not detected
[3] = single inhibitors 24 μM, pairs 12 μM each, triple 8 μM each, p<0.05

| Molecule | formation of buprenorphine glucuronide (UGT; [2]) | formation of buprenorphine glucuronide (UGT; [3]) | oral bioavailability [1] |
| --- | --- | --- | --- |
| O=c1c(O)c(-c2ccc(O)c(O)c2)oc2cc(O)cc(O)c12 [quercetin] | not detected | – | – |
| Oc1ccc(C=Cc2cc(O)cc(O)c2)cc1 [resveratrol] | not detected | – | – |
| COc1c(O)cc2oc3cc(O)c(CC=C(C)C)c(O)c3c(=O)c2c1CC=C(C)C [α-mangostin] | significantly decreased | – | – |
| COc1ccccc1O [guaiacol] | significantly decreased | – | – |
| CC(=O)CCc1ccc(O)cc1 [rasketone] | significantly decreased | – | – |
| CCOc1cc(C2OCC(C)O2)ccc1O (stereo not shown) [ethyl vanillin propylene glycol acetal] | significantly decreased | – | – |
| COc1cc(C2Oc3cc([C@H]4Oc5cc(O)cc(O)c5C(=O)[C@@H]4O)ccc3OC2CO)ccc1O (stereo partly shown) [silybin] | significantly decreased | – | – |
| COc1cc(C=O)ccc1O [vanillin] | significantly decreased | significantly inhibited | – |
| COc1cc(/C=C/C(=O)CC(=O)/C=C/c2ccc(O)c(OC)c2)ccc1O [curcumin] | not detected | – | – |
| C=CCc1ccc(O)c(-c2cc(CC=C)ccc2O)c1 [magnolol] | significantly decreased | – | – |
| CCCOC(=O)c1ccc(O)cc1 [propylparaben] | significantly decreased | – | – |
| CCCOC(=O)c1cc(O)c(O)c(O)c1 [propyl gallate] | not detected | significantly inhibited | – |
| COC(=O)c1ccc(O)cc1 [methylparaben] | trend toward a decrease | – | – |
| CCOc1cc(C=O)ccc1O [ethyl vanillin] | significantly decreased | – | – |
| CC=Cc1ccc(O)c(OC)c1 [isoeugenol] | not detected | significantly inhibited | – |
| COc1cc(CCC(C)=O)ccc1O [zingerone] | significantly decreased | – | – |
| C=CCN1CC[C@]23c4c5ccc(O)c4O[C@H]2C(=O)CC[C@@]3(O)[C@H]1C5 [naloxone] | – | – | low |
| pinoresinol | not detected | – | – |
| C=CCc1ccc(O)c(OC)c1 [eugenol] | significantly decreased | – | – |
